Measured values: article PMC5887109, “Unravelling the Molecular Determinants of Bee Sensitivity to Neonicotinoid Insecticides” (Current Biology, 2018)

How the values were obtained:
[1] = tested on: Bombus terrestris; experiment: Acute oral insecticide bioassay of bumble bees, with or without PBO; details: for increase in the sensitivity of bumble bees after treatment with PBO: oral bioassay, PBO pretreatment; for LD50: 48 hours after application
Method: (§1) Acute contact insecticide assays were performed on female A. mellifera following standard methods OECD 2013 [30]. Bioassays of B. terrestris were based on the OECD guidelines developed for honeybees but with bees assayed in individual Nicot cages. Bees were starved of sucrose solution for up to 2 hr to encourage feeding during the experiment. […] Controls were fed a solution of sucrose containing a concentration of acetone matching that of the highest treatment concentration. After 4-6 hr the syringes were assessed to see if bees had consumed the insecticide-sucrose solution. Those that had not consumed all of the solution were excluded from the experiment. Mortality was assessed 48 hr after feeding and lethal concentrations (LC50 values) were calculated by probit analysis using Genstat version 16 (VSN International). For synergist bioassays, B. terrestris or A. mellifera workers were first treated with 20 μg of piperonyl butoxide or 1 μg of aminobenzotriazole applied to the dorsal thorax. Synergist bioassays included an additional control group treated only with the synergist. 1 hr after synergist application, bees were then treated with the appropriate insecticide dosage as above.

[2] = molecular target: T1, CYP9Q2 (Apis mellifera, UniProt A0A7M7R6F2); experiment: in vitro; details: for metabolism by the recombinant P450 (in words): hydroxylation (thiacloprid, imidacloprid) or N-desmethylation (acetamiprid)
T1 sequence (A0A7M7R6F2 1-532): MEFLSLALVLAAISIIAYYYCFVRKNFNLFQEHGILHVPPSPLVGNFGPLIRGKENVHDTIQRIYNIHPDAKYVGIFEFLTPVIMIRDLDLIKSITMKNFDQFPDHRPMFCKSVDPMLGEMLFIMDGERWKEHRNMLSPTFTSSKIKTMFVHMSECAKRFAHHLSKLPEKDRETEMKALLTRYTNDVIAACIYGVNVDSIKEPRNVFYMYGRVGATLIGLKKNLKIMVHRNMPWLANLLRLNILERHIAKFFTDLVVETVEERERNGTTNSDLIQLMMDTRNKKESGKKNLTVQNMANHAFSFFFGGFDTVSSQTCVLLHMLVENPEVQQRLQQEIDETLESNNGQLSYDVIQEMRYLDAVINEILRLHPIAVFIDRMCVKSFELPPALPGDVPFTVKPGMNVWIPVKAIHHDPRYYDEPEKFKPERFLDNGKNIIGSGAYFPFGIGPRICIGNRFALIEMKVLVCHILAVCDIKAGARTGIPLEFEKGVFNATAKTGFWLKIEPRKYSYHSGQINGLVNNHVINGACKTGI
T1 sequence (Q07994 1-671 partner): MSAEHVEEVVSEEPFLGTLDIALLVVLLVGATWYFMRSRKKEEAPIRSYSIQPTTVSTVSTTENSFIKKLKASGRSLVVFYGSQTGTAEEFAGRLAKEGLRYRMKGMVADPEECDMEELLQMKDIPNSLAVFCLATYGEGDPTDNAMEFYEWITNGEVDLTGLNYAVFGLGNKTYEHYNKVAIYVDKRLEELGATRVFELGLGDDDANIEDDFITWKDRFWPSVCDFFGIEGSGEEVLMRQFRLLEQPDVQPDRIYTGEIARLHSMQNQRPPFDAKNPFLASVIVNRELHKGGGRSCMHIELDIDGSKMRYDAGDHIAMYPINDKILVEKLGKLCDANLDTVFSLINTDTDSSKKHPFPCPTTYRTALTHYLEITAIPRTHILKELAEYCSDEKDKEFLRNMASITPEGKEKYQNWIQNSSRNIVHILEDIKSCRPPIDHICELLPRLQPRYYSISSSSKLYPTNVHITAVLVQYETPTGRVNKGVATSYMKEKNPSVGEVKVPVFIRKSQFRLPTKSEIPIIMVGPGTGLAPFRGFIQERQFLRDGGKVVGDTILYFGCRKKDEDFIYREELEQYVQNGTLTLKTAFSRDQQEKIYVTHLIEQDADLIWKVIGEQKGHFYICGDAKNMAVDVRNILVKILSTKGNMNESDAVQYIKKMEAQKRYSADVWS
From the text: (§2) All bee P450 (see Table S3 for accession numbers) and house fly NADPH-dependent cytochrome P450 reductase (CPR) (GenBank accession number Q07994) genes were obtained by gene synthesis (Geneart, CA, USA) and inserted into the pDEST8 expression vector (Invitrogen). Codon optimization of all bee genes was used to optimize expression in lepidopteran cell lines. The PFastbac1 vector with no inserted DNA was used to produce a control virus. The recombinant baculovirus DNA was constructed and transfected into Trichoplusia ni (High five cells, Thermo Fisher) using the Bac-to-Bac baculovirus expression system (Invitrogen) according to the manufacturer’s instructions. The titer of the recombinant virus was determined following protocols of the supplier. High Five cells grown to a density of 2 × 10^6 cells ml^-1 were co-infected with recombinant baculoviruses containing each bee P450 and CPR with a range of MOI (multiplicity of infection) ratios to identify the optimal conditions. Control cells were co-infected with the baculovirus containing vector with no insert (ctrl-virus) and the recombinant baculovirus expressing CPR using the same MOI ratios. Ferric citrate and δ-aminolevulinic acid hydrochloride were added to a final concentration of 0.1 mM at the time of infection and 24 h after infection to compensate the low levels of endogenous heme in the insect cells. After 48 h, cells were harvested, washed with PBS, and microsomes of the membrane fraction prepared according to standard procedures and stored at −80°C [31]. Briefly, pellets were homogenized for 30 s in 0.1M Na/K-phosphate buffer, pH 7.4 containing 1mM EDTA and DTT and 200mM sucrose using a Fastprep (MP Biomedicals), filtered through miracloth and centrifuging for 10 min at 680 g at 4°C. The supernatant was then centrifuged for 1 h at 100,000 g at 4°C, with the pellet subsequently resuspended in 0.1M Na/K-phosphate buffer, pH 7.6 containing 1mM EDTA and DTT and 10% glycerol using a Dounce tissue grinder. P450 expression and functionality was estimated by measuring CO-difference spectra in reduced samples using a Specord 200 Plus Spectrophotometer (Analytik Jena) and scanning from 500 nm to 400 nm. The protein content of samples was determined using Bradford reagent (Sigma) and bovine serum albumin (BSA) as a reference.
(§3) The total assay volume was 200 μL using three replicates for each data point. Microsomes incubated without NADPH served as a control. The assay was stopped by the addition of ice-cold acetonitrile (to 80% final concentration), centrifuged for 10 min at 3000 g and the supernatant subsequently analyzed by tandem mass spectrometry as described previously. For the chromatography on a Waters Acquity HSS T3 column (2.1x50mm, 1.8μm), acetonitrile/water/0.1% formic acid was used as the eluent in gradient mode. […] The peak integrals were calibrated externally against a standard calibration curve. […] Substrate turnover from two independent reactions were plotted versus controls and Michaelis-Menten kinetics determined using GraphPad Prism version 7 (GraphPad Software, CA, USA).

[3] = molecular target: CYP9Q3 (Apis mellifera, UniProt A0A7M7LMV1); experiment: in vitro; details: for metabolism by the recombinant P450 (in words): hydroxylation (thiacloprid, imidacloprid) or N-desmethylation (acetamiprid)
Sequence of CYP9Q3 (A0A7M7LMV1 entry or part of it, one chain of several): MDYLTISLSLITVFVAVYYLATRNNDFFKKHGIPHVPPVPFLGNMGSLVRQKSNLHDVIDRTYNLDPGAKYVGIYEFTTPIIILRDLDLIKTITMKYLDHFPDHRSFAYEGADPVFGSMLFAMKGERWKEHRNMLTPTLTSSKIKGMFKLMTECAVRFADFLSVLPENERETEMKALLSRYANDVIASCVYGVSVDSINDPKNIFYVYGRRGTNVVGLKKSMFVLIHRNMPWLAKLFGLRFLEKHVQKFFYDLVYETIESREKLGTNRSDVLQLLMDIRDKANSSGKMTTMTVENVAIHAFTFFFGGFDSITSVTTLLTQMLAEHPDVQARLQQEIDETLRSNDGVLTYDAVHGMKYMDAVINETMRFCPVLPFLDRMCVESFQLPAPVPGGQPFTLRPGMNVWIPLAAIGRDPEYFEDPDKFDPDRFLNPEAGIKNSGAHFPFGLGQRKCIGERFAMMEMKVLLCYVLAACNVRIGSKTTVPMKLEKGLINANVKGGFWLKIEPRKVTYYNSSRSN
From the text: as §2, §3

[4] = tested on: Bombus terrestris; experiment: Acute contact (topical) insecticide bioassay of bumble bees; details: no synergist, 48 hours after application
Method: as §1

[5] = tested on: bumble bees (Bombus terrestris); experiment: Bumble bee contact and oral bioassays taken together, EPA rating; details: depends on route of exposure
Method: as §1

[6] = apparent value, mean ± SD (n=3), decimal commas

| SMILES | increase in the sensitivity of bumble bees after treatment with PBO [1] | Synergism Ratio ([1]; oral, PBO versus no synergist) | LD50 ([1]; oral, no synergist) | LD50 ([1]; oral, synergist PBO) | metabolism by the recombinant P450 (in words) [2] | metabolism by the recombinant P450 (in words) [3] | LD50 [4] | EPA toxicity category [5] | Km at 2 h ([2]; Apis mellifera) | Vmax, thiacloprid hydroxylation [2, 6] | Km at 2 h ([3]; Apis mellifera) | Vmax, thiacloprid hydroxylation [3, 6] |
| --- | --- | --- | --- | --- | --- | --- | --- | --- | --- | --- | --- | --- |
| O=[N+]([O-])NC1=NCCN1Cc1ccc(Cl)nc1 [imidacloprid] | no significant shift | 1.2 | 0.038 μg/bee | 0.032 μg/bee | much lower efficiency than exhibited for thiacloprid | much lower efficiency than exhibited for thiacloprid | 0.38 μg/bee | highly toxic |  |  |  |  |
| N#C/N=C1\SCCN1Cc1ccc(Cl)nc1 [thiacloprid] | 4.2 fold |  | 19.68 μg/bee | 4.73 μg/bee | weak activity | highly efficient metabolizer | > 100 μg/bee | slightly toxic” or “practically non-toxic | 5.65 µM | 44,31±1,01 pmol min-1 mg-1 | 3.92 µM | 607,8±5,48 pmol min-1 mg-1 |
